We go through 14 compounds from USRE33906E, “Cyclic carboxamide derivatives and their use as analgesics” (Dr.Lo.Zambeletti S.p.A., priority 1985, dated 1992).

For test [1], the system named is mice (reaction time under heat source). Nature of the test: Mouse Tail-flick test. Format: in vivo, mouse (Male Charles River). The settings on record: sc, 0.5 h; for responders at 1 mg/kg: 1 mg Kg^-1, Table 3, read-out: Mouse tail flick % Protection. The protocol: Mouse Tail-flick test (Modified from the procedure published by D'Amour et al., J. Pharm. Exptl. Ther. 72, 74/1941)
Male Charles River mice, average weight 26 g, are used. Selection is carried out before beginning of experiments: only mice whose reaction time is less than 8 sec are used. They are randomly distributed into groups of 10 and dosed with compounds under test, with positive and negative controls being included.
Compounds under test are administered subcutaneously in isotonic saline in a volume of 20 ml. Kg^-1. 30 min later mice are placed again under heat source (Socrel apparatus) and reaction time is recorded.
The analgestic activity of the test compound is expressed as the percent number of mice doubling the initial time within a group. [formula]
A general note: Hot-plate and tail-flick tests time the reaction to a heat stimulus.

Test [2] has as its target μ receptor (Cavia porcellus, UniProt A0ACM8Q262). The experiment in a line: Radio receptor binding to μ sites (3H-DAGO). The protocol:
(§1) RECEPTOR AFFINITY STUDY Tissue preparation
(§2) Radio receptor binding to μ and K sites is performed on fresh guinea pig brain homogenate prepared according to Kosterlitz (1981).
(§3) Whole brain without cerebellum is homogenized in 50 mM, Tris-buffer (pH 7.4 at 0° C.) and centrifuged at 49,000×g×10 min.
(§4) The pellet is then resuspended in the same buffer, incubated at 37° C. for 45 min. and centrifuged again.
(§5) 1.9 ml of the final homogenate (1:100 in Tris-pH 7.4, 0° C.) is used for the binding assay.
Binding to μ sites (Magnan J., 1982)
^3 H [D-Ala^2, MePhe^4, Gly-ol^5 ] Enkephalin (^3 H-DAGO), an enkephalin analogue that binds selectively to μ receptor, is added to the biological substrate and incubated at 25° C. for 40 min., filtered through Whatman GF-C and washed with ice-cold Tris-buffer.
The filters are then dryed, solubilized in Filtercount and the radioactivity monitored. Non specific binding is determined in the presence of 10^-6 M Naloxone.
(§6) For the calculation of the kinetic parameters of the binding of labelled and unlabelled ligands, the equilibrium dissociation constant (KD), the inhibition constant (Ki) and the maximum number of binding sites (B max) are determined from saturation curves and competition experiments (Hill 1910; Scatchard 1949; Cheng and Prusoff 1973; Gillan et al. 1980).
(§7) A concentration of radioligand near KD is used in the binding assays evaluating our compounds.

Test [3] has as its system mice (p-phenylquinone writhing). Nature of the test: Mouse p-phenylquinone Writhing test. The test is classed as in vivo, mouse (Male Charles River). The settings on record: sc, Table 2. On the procedure: Mouse p-phenylquinone Writhing test (According to Siegmund et al., Proc. Soc. Exptl. Biol. 95, 729/1957)
Male Charles River mice, average weight 26 g, are randomly distributed into group of 10 and are dosed subcutaneously with compounds under test, dissolved in isotonic saline (20 ml.Kg^-1). The experiments are carried out in the presence of positive and negative controls. 20 min after the mince are injected intraperitoneally with p-phenylquinone 0.02%, 10 ml. Kg^-1, maintained at 37° C. in a water bath. The mice are placed in a perspex compartmented observation box and observed for a period of 8 min after injection of p-phenylquinone. The dose-response curve is obtained by basing observation on the all or none response.
Background: Writhing tests count abdominal constrictions after an irritant is injected.

The target of test [4] is T1, K receptor (Kappa opioid receptor) (Cavia porcellus, UniProt P41144).
T1 construct: fresh guinea pig brain homogenate; from tissue; host or cells: guinea pig whole brain without cerebellum, homogenate
T1 sequence (P41144 whole entry): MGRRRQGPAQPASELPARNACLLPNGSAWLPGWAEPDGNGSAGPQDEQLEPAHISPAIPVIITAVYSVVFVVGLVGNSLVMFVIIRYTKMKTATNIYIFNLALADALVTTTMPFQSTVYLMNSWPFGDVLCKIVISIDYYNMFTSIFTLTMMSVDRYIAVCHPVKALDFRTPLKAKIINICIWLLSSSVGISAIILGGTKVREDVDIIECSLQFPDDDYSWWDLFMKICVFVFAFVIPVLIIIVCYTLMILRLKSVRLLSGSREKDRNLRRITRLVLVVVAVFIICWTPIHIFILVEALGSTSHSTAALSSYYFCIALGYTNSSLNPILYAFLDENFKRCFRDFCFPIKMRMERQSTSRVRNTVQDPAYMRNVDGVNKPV
The experiment in a line: Radio receptor binding to K sites (tritiated Ethylketocyclazocine). Set-up: species or system guinea pig. The settings on record: for remaining activity at 1 µM: 40 min, 10^-6 M, read-out: Opiate receptor binding K, % residual specific binding at 10^-6 M. The protocol: as §1, §2, §3, §4, §5
Binding to K sites (Magnan J., 1982)
The binding of tritiated Ethylketocyclazocine to brain homogenate is measured the in presence of 100 nanomolar D-Ala-D-LeuEnkephalin (DADLE) and 100 nanomolar DAGO, added to saturate the δ and μ opioid receptors respectively.
Final homogenate with solutions of the cold ligand and of the labelled ligand is incubated for 40 min. at 25° C., filtered through Whatman GF/C glass filter discs and washed.
The radioactivity bound to the filters is counted by liquid scintillation spectrophotometry.
MR 2266.500 nM is utilized to determine the saturable binding.
as §6, §7

The test system of test [5] is mice (reaction time under heat source). The experiment in a line: Mouse Tail-flick test. The settings on record: oral (os), Table 3. Format: in vivo, mouse (Male Charles River).
Where [6] appears, read: read-out: Receptor binding μ Ki, guinea pig brain homogenate, Table 2.
Where [7] appears, read: s.c., 30 min after dosing, Table 2, read-out: Mouse tail flick ED50.
Where [8] appears, read: guinea pig brain homogenate, Table 3.
Setting [9] is: subcutaneous, Table 3, read-out: Mouse tail flick subcutaneous ED50.

Structures are written as SMILES. Counter-ions that a name gives are not always drawn. Like-named read-outs stand apart in the source and are kept apart here.

μ receptor, sequence (A0ACM8Q262 1-400): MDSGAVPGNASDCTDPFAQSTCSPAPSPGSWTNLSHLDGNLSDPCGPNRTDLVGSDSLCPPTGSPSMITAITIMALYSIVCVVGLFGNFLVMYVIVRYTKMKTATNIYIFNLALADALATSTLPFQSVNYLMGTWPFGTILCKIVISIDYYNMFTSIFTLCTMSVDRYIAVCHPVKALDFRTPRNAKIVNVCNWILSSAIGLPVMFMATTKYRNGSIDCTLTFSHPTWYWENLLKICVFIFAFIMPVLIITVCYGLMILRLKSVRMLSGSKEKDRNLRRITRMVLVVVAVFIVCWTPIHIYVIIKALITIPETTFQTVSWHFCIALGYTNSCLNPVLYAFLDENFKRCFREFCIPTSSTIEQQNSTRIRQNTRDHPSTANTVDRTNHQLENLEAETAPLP

Turning to `CCC(C(=O)N1CCCCC1CN1CCCC1)c1ccccc1` (single isomer, unassigned; isomer b) [Example 16, 1-(2-phenylbutyroil)-2-(1pyrrolidinylmethyl) piperidine hydrochloride. Isomer B], in test [1] (subcutaneous), the responders at 1 mg/kg worked out at 40%.
With `O=C(Cc1ccc(Cl)c(Cl)c1)N1CCCCC1CN1CCCC1` (centres unmarked) [Example 1, 1-(3,4-dichlorophenyl)acetyl-2-(1-pyrrolidinyl)methyl piperidine hydrochloride], the Ki in test [2] (setting [6]) came to 1860 nM; in test [4] (guinea pig brain homogenate, tritiated Ethylketocyclazocine with DADLE and DAGO 100 nM each, Table 2, read-out: Receptor binding K Ki), 1.83 nM. Also, the ED50 in test [1] (setting [7]) was found to be 0.11 mg/kg; in test [3] it was 0.2 mg/kg.
On to `CN(C)CC1CCCCN1C(=O)Cc1ccc(Cl)c(Cl)c1` (centres unmarked) [Example 2, 1-(3,4-dichlorophenyl)acetyl-2-dimethylaminomethyl piperidine hydrochloride], for which the Ki was determined as 3730 nM in test [2] (guinea pig brain homogenate, Table 2, read-out: Receptor binding μ Ki) and 8.21 nM in test [4]. Moreover, the ED50 in test [1] (setting [7]) stood at 0.36 mg/kg; in test [3] it was 0.65 mg/kg.
On to `O=C(Cc1ccc(Cl)c(Cl)c1)N1CCCC[C@@H]1CN1CCCC1` [Example 3, (2R)-1-(3,4-dichlorophenylacetyl)-2-(1-pyrrolidinylmethyl)piperidine hydrochloride hydrate], for which the values for the Ki in test [2] (setting [6]) and in test [4] were 7110 nM and 62.1 nM, respectively. Moreover, the ED50 in test [1] (setting [7]) is 17.5 mg/kg; in test [3] it was 12.4 mg/kg.
In the same order, the values of `O=C(Cc1ccc(Cl)c(Cl)c1)N1CCCC[C@H]1CN1CCCC1` [Example 4, (2S)-1-(3,4-dichlorophenylacetyl)-2-(1-pyrrolidinylmethyl)piperidine hydrochloride hydrate] are 1560 nM, 0.77 nM, 0.055 mg/kg and 0.12 mg/kg.
Regarding `CN(C)C[C@@H]1CCCCN1C(=O)Cc1ccc(Cl)c(Cl)c1` [Example 5, (2S)-1-(3,4-dichlorophenylacetyl)-2-dimethylamino methylpiperidine sesquihydrate], the values for the Ki in test [2] (setting [6]) and in test [4] were above 1 nM and 5.01 nM, respectively. The ED50 in test [1] (setting [7]) was 1.03 mg/kg; in test [3], 0.44 mg/kg.
As to `O=C(Cc1ccc(Cl)c(Cl)c1)N1CCCCCC1CN1CCCC1` (centres unmarked) [Example 8, 1-(3,4-dichlorophenylacetyl)-2-(1-pyrrolidinylmethyl)-hexahydroazepine hydrochloride], the ED50 in test [1] (setting [7]) was 8.76 mg/kg. This compound registered a Ki in test [4] of 6.51 nM.
With `O=C(Cc1ccccc1)N1CCCCC1CN1CCCC1` (centres unmarked) [Example 10, 1-phenylacetyl-2-(1-pyrrolidinylmethyl)piperidine hydrochloride], the responders at 1 mg/kg in test [1] (subcutaneous) turned out to be 40%. For the same compound, the remaining activity at 1 µM in test [4] (setting [8]) amounted to 100%.
Regarding `Cc1ccc(CC(=O)N2CCCCC2CN2CCCC2)cc1C` (centres unmarked) [Example 11, 1-(3,4-dimethylphenylacetyl)-2-(1-pyrrolidinylmethyl) piperidine hydrochloride], the responders at 1 mg/kg in test [1] (subcutaneous) stood at 60%. In addition, in test [4] (setting [8]), the remaining activity at 1 µM was 67%.
For `O=C(Cc1ccc2c(c1)CCC2)N1CCCCC1CN1CCCC1` (centres unmarked) [Example 12, 1-(5-indaneacetyl)-2-(1-pyrrolidinylmethyl)piperidine hydrochloride] the same measures were 60% and 62%.
For `O=C(Cc1ccc2c(c1)CCCC2)N1CCCCC1CN1CCCC1` (centres unmarked) [Example 13, 1-(6-tetralylacetyl)-2-(1-pyrrolidinylmethyl)piperidine hydrochloride], the Ki in test [2] (read-out: Opiate receptor binding μ Ki, guinea pig brain homogenate, Table 3) is 500 nM; in test [4] (guinea pig brain homogenate, tritiated Ethylketocyclazocine, Table 3, read-out: Opiate receptor binding K Ki), 5.72 nM. The ED50 in test [5] was determined as 3.91 mg/kg; in test [1] (setting [9]) it was 45 mg/kg. The responders at 1 mg/kg in test [1] (subcutaneous) is 80%.
Consider `O=C(Cc1ccc(Cl)cc1)N1CCCCC1CN1CCCC1` (centres unmarked) [Example 14, 1-(4-chlorophenylacetyl)-2-(1-pyrrolidinylmethyl) piperidine hydrochloride], for which the responders at 1 mg/kg in test [1] (subcutaneous) was 40%. Also, the remaining activity at 1 µM in test [4] (setting [8]) was 61%.
As for `COc1ccc(CC(=O)N2CCCCC2CN2CCCC2)cc1OC` (centres unmarked) [Example 15, 1-(3-4-dimethoxyphenylacetyl)-2-(1-pyrrolidinylmethyl) piperidine hydrochloride], the responders at 1 mg/kg in test [1] (subcutaneous) worked out at 40%. Further, the remaining activity at 1 µM in test [4] (setting [8]) amounted to 100%.
`O=C(COc1ccc(Cl)cc1)N1CCCCC1CN1CCCC1` (centres unmarked) [Example 17, 1-(4-chlorophenoxyacetyl)-2-(1-pyrrolidinylmethyl) piperidine hydrochloride]: the responders at 1 mg/kg in test [1] (subcutaneous) was found to be 80%. In addition, in test [1] (setting [9]), the ED50 stood at 91 mg/kg. The compound also showed a Ki in test [4] of 9.54 nM.

Usually Ki stands for a dissociation constant, usually derived from enzyme kinetics or from competition with a known ligand. For orientation: ED50 means the dose at which the effect has come halfway, by size or by number of responders.
